The record followed here is patent US20190315771A1, “NOVEL 2-ACYLAMINOTHIAZOLE DERIVATIVE AND PREPARATION METHOD THEREFOR AND USE THEREOF” (SICHUAN KELUN-BIOTECH BIOPHARMACEUTICAL CO., LTD., priority 2016, published 2019).

SMILES strings stand for the structures.

One assay addresses hERG potassium channel (Homo sapiens, UniProt Q12809). Kind of assay: hERG test, electrophysiological manual patch clamp. In kind it is cell-based. The conditions noted are these: manual patch clamp; IC50 >10 μM judged as no inhibitory effect on hERG. An excerpt: In cardiomyocytes, the potassium channel encoded by hERG (human Ether-a-go-go Related Gene) mediated the delayed rectifier potassium current (lKr). The IKr inhibition was the most important mechanism for drug-induced QT prolongation and induction of arrhythmia.
The electrophysiological manual patch clamp was used to detect the effect of the tested compound on the hERG potassium channel.
For orientation: Block of hERG is tested as a sign of cardiac risk.

In a further assay the target is T1, human TPOR (Homo sapiens, UniProt P40238).
T1 construct: expressed in transfected cells; host or cells: mouse BAF3 cells
T1 sequence (P40238 26-635): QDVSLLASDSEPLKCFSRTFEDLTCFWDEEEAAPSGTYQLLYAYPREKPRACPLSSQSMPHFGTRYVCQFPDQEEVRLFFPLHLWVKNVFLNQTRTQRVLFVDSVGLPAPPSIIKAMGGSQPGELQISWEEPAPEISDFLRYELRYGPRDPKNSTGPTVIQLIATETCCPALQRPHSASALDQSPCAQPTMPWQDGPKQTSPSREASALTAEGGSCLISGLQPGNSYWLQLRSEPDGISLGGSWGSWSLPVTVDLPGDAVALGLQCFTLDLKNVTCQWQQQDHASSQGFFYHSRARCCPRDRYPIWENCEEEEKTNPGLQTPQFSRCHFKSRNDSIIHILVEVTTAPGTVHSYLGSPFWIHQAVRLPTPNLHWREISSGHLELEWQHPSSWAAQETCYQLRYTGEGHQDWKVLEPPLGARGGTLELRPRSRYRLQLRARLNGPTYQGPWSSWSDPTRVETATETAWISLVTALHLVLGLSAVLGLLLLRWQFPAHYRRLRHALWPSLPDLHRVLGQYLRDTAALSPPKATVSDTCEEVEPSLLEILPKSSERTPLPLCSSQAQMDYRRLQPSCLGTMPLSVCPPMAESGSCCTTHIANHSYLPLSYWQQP
Kind of assay: Proliferation of BAF3/TPOR cells (MTS method, OD490). Format: cell-based, mouse. Conditions: BAF3 cells stably expressing human TPOR, cultured with compound 24 h. An excerpt:
The TPO mimetic compound was synthesized in vitro, and the compound acted on the TPO receptor (TPOR) on the cell to stimulate cell proliferation and differentiation. The OD490 value was detected by the MTS method, and the more the number of cells, the larger the OD value, thereby detecting the response of the compound to cell proliferation and differentiation. The agonist concentration at which the increased signal arrived at the highest level was Emax, and the concentration of the compound at which the increased signal arrived at 50% of the signal of Emax was EC50. The activity of the compound was determinable by EC50, and the smaller the EC50, the higher the activity of the compound.
Mouse […] BAF3 stably expressing human TPOR were cultured in 1640 medium containing 10% FBS. On the day of the assay, the cells were counted and seeded in a 96-well plate at 1×10^4 cells/50 μL. 50 μL of different concentrations of the tested compound were added to the wells to a final concentration of 10000 nM, 3000 nM, 300 nM, 30 nM, 3 nM, 0.3 nM, 0.03 nM, 0.003 nM, 0.0003 nM, and the final concentration of DMSO was 1%. After the cells were cultured with the compound for 24 h at 37° C. in a 5% CO2 incubator, 10 μL of detection reagent (Promega, Cell Titer 96® Aqueous One Solution) was added. After mixing, the resulting mixture was incubated for 3 h in the incubator. The OD 490 was detected using a multifunctional automatic microplate reader, and the EC50 was fitted using GraphPad Prism 5 software.
A general note: Tetrazolium dyes change colour on reduction, which living cells bring about.

Chain of hERG potassium channel (Q12809 whole entry): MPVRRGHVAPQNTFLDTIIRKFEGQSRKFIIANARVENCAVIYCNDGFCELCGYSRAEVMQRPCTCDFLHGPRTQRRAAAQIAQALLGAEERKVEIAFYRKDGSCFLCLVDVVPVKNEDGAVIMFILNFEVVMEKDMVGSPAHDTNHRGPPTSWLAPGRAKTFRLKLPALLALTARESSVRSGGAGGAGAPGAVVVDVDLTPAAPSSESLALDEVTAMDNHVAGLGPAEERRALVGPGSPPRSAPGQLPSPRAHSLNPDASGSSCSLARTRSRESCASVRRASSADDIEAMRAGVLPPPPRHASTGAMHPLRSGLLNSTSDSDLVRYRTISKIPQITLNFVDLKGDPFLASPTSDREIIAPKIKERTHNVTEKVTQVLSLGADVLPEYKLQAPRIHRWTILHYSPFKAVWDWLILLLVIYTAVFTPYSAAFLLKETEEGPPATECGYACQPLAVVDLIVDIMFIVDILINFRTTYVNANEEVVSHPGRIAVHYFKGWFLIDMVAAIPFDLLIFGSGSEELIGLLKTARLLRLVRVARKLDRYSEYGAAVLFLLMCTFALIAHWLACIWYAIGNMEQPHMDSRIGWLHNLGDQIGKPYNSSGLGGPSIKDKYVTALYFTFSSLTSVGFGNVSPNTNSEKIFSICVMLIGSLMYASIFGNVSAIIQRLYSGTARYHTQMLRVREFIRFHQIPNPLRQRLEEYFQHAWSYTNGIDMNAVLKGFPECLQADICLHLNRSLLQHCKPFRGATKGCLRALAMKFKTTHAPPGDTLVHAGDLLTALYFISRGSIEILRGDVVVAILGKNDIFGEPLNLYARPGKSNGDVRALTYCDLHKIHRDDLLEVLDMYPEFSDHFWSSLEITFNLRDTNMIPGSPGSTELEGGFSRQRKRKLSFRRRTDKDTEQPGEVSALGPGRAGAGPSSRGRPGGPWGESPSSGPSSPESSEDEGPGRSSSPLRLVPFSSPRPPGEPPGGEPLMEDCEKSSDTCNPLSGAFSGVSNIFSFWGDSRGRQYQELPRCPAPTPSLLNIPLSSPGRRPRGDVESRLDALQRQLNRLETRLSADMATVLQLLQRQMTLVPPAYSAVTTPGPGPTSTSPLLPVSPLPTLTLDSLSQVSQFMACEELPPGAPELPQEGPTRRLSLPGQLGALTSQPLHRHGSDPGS

Broadly, the IC50 is the concentration that gives 50% inhibition. A high value points to lower potency. For orientation: EC50 means the concentration at which the effect is half-maximal. Take `C/C(=C\c1c(Cl)cc(C(=O)Nc2nc(-c3cc(Cl)cs3)c(N3C[C@@H]4CCN(C5[C@H]6C[C@@H]7C[C@@H](C[C@H]5C7)C6)[C@@H]4C3)s2)cc1Cl)C(=O)O` (stereo partly drawn) [Example 52, (E)-3-(4-((5-((3aS,6aS)-1-((1S,3S,5S,7S)-adamantan-2-yl)hexahydropyrrolo[3,4-b]pyrrol-5(1H)-yl)-4-(4-chlorothiophen-2-yl)thiazol-2-yl)carbamoyl)-2,6-dichlorophenyl)-2-methylacrylic acid]: half-maximal inhibition against hERG potassium channel (IC50) was put at 7.9 µM. Further, on human TPOR, the half-maximal effective concentration (EC50) is 0.00013 µM.
